Results published in the supplement of paper PMC4862054.

How the values were obtained:
Settings in all cases: incubation time: 72 h
[1] = system: BT-474; experiment: normalised response (% of control), CellTox Green; higher = less cell death (100 = DMSO, 0 = benzethonium chloride kill control)
Procedure, shortened: (§1)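 Every value is a normalised signal taken at one concentration of a dilution series. Compound was placed in 384-well plates at 5 concentrations in 10-fold steps over a compound-specific 10,000-fold range, and 20 µl of breast cancer cell suspension was seeded onto it. After 72 h, CellTox Green fluorescence (485/520 nm) was measured first and CellTiter-Glo luminescence second, following 10 min at room temperature. Each plate was scaled to 0.1 % DMSO (100) and a positive kill control (0).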

[2] = system: BT-549; experiment: as above
Procedure, shortened: as §1

[3] = system: CAL-120; experiment: as above
Procedure, shortened: as §1

[4] = system: CAL-148; experiment: as above
Procedure, shortened: as §1

[5] = system: CAL-51; experiment: as above
Procedure, shortened: as §1

[6] = system: CAL-85-1; experiment: as above
Procedure, shortened: as §1

[7] = system: DU-4475; experiment: as above
Procedure, shortened: as §1

[8] = system: HCC1143; experiment: as above
Procedure, shortened: as §1

[9] = system: HCC1599; experiment: as above
Procedure, shortened: as §1

[10] = system: HCC1937; experiment: as above
Procedure, shortened: as §1

[11] = system: HDQ-P1; experiment: as above
Procedure, shortened: as §1

[12] = system: Hs578T; experiment: as above
Procedure, shortened: as §1

[13] = system: MCF-10A; experiment: as above
Procedure, shortened: as §1

[14] = system: MDA-MB-231; experiment: as above
Procedure, shortened: as §1

[15] = system: MDA-MB-436; experiment: as above
Procedure, shortened: as §1

[16] = system: MDA-MB-453; experiment: as above
Procedure, shortened: as §1

[17] = system: MDA-MB-468; experiment: as above
Procedure, shortened: as §1

[18] = system: MFM-223; experiment: as above
Procedure, shortened: as §1

[19] = system: BT-474; experiment: normalised response (% of control), CellTiter-Glo; higher = more viable cells (100 = DMSO, 0 = benzethonium chloride kill control)
Procedure, shortened: as §1

[20] = system: BT-549; experiment: as above
Procedure, shortened: as §1

[21] = system: CAL-120; experiment: as above
Procedure, shortened: as §1

[22] = system: CAL-148; experiment: as above
Procedure, shortened: as §1

[23] = system: CAL-51; experiment: as above
Procedure, shortened: as §1

[24] = system: CAL-85-1; experiment: as above
Procedure, shortened: as §1

[25] = system: DU-4475; experiment: as above
Procedure, shortened: as §1

[26] = system: HCC1143; experiment: as above
Procedure, shortened: as §1

[27] = system: HCC1599; experiment: as above
Procedure, shortened: as §1

[28] = system: HCC1937; experiment: as above
Procedure, shortened: as §1

[29] = system: HDQ-P1; experiment: as above
Procedure, shortened: as §1

[30] = system: Hs578T; experiment: as above
Procedure, shortened: as §1

[31] = system: MCF-10A; experiment: as above
Procedure, shortened: as §1

[32] = system: MDA-MB-231; experiment: as above
Procedure, shortened: as §1

[33] = system: MDA-MB-436; experiment: as above
Procedure, shortened: as §1

[34] = system: MDA-MB-453; experiment: as above
Procedure, shortened: as §1

[35] = system: MDA-MB-468; experiment: as above
Procedure, shortened: as §1

[36] = system: MFM-223; experiment: as above
Procedure, shortened: as §1

[37] = system: SK-BR-3; experiment: as above
Procedure, shortened: as §1

SMILES | normalised response [1] | normalised response [2] | normalised response [3] | normalised response [4] | normalised response [5] | normalised response [6] | normalised response [7] | normalised response [8] | normalised response [9] | normalised response [10] | normalised response [11] | normalised response [12] | normalised response [13] | normalised response [14] | normalised response [15] | normalised response [16] | normalised response [17] | normalised response [18] | normalised response [19] | normalised response [20] | normalised response [21] | normalised response [22] | normalised response [23] | normalised response [24] | normalised response [25] | normalised response [26] | normalised response [27] | normalised response [28] | normalised response [29] | normalised response [30] | normalised response [31] | normalised response [32] | normalised response [33] | normalised response [34] | normalised response [35] | normalised response [36] | normalised response [37]
O=C1CN2Cc3c(ccc(Cl)c3Cl)N=C2N1 [Anagrelide] (100 nM) | 99.4% | 77.3% | 98% | 100% | 51.3% | 104% | 98.5% | 108% | 86.8% | 103% | 101% | 104% | 100% | 96.2% | 105% | 92.5% | 146% | 68.7% | 93.7% | 105% | 96% | 94.1% | 63.1% | 97% | 96.9% | 101% | 104% | 95.8% | 97.2% | 98.5% | 98.4% | 94.7% | 94.3% | 111% | 99.5% | 101% | 103%
Cn1cnc2c(F)c(Nc3ccc(Br)cc3Cl)c(C(=O)NOCCO)cc21 [Selumetinib] (100 nM) | 96.5% | 104% | 95.8% | 90.4% | 98.7% | 94.9% | 92.2% | 86.3% | 89.2% | 100% | 97.9% | 102% | 94.8% | 77.1% | 77.2% | 101% | 75.3% | 94.9% | 84.2% | 104% | 90% | 94% | 94.1% | 100% | 81% | 92% | 113% | 85% | 70.6% | 89.4% | 45.7% | 84.7% | 96.2% | 103% | 89.6% | 94.9% | 91%
CC(=O)O[C@@]12CO[C@@H]1C[C@H](O)[C@@]1(C)C(=O)[C@H](O)C3=C(C)[C@@H](OC(=O)[C@H](O)[C@@H](NC(=O)OC(C)(C)C)c4ccccc4)C[C@@](O)([C@@H](OC(=O)c4ccccc4)[C@H]21)C3(C)C [Docetaxel] (10 nM) | 65.8% | 63.4% | 88.8% | 61.8% | 11.5% | 26.6% | 94% | 88.9% | 95.8% | 24.7% | -5.27% | 39.5% | 56.1% | -111% | 79.8% | 99.3% | 104% | 77.9% | 67.8% | 20.5% | 61.7% | 38.2% | 43.1% | 26.6% | 68.8% | 35.5% | 71.9% | 67.3% | 69.4% | 28.1% | 46.2% | 53.4% | 40.7% | 61.2% | 22.7% | 54.3% | 12.2%
Nc1ncn([C@@H]2O[C@H](CO)[C@@H](O)[C@H]2O)c(=O)n1 [Azacitidine] (100 nM) | 101% | 99.9% | 96.9% | 103% | 99.3% | 108% | 98.2% | 56% | 98% | 99.4% | 64.8% | 103% | 87% | 88.1% | 79.5% | 83.8% | 115% | 97.8% | 102% | 101% | 96.3% | 101% | 99.8% | 99.1% | 91.1% | 98.6% | 100% | 97% | 103% | 100% | 103% | 98.1% | 99% | 89% | 96.4% | 98% | 96%
